# Data from patent US20160038532A1, “Treatment of Multiple Sclerosis With Combination of Laquinimod and Glatiramer Acetate” (TEVA PHARMACEUTICAL INDUSTRIES, LTD., priority 2011, published 2016).
# Several values for one entry are separate records, joined by “and”; a condition that tells them apart may be missing. Equal values may be shown once.
# Assays:
# MOG-induced EAE [1] = test: MOG-induced EAE with GA blocking and s.c. daily GA (Example 2.5); type: in vivo, C57B1 mice; parameters: key to MMS value / GMS value: EAE clinical grade (Table 2); ≥1 = sick, 6 = dead/sacrificed
# Method: The objective of this study was to test the suppressive effect of laquinimod alone and in combination with Glatiramer acetate in the EAE model in C57B1 mice. […] Laquinimod was administered orally at dose levels of 2.5 and 5.0 mg/kg.
# EAE was induced in the mice by the injection of the encephalitogenic emulsion (MOG/CFA). Laquinimod was administered orally for 30 consecutive days.
# EAE induction EAE was induced by injecting the encephalitogenic mixture (emulsion) consisting of MOG ([…]). A 0.2 ml emulsion was injected subcutaneously into the flanks of the mice. Pertussis toxin was injected intraperitoneally on the day of induction and 48 hours later (total amount will be 0.150+0.150=0.300 μg/mouse in 0.2 ml dosage volume).
# Groups 1, 3-8: 45.9 mg MOG was diluted in […] Normal Saline (3.0 mg/ml MOG stock solution). 12.5 mL of 3.0 mg/ml stock solution was diluted in 12.5 mL Normal Saline to yield 1.5 mg MOG/mL. […] The emulsification was made from equal parts of oil and liquid portions (1:1) in two syringes connected to each other with Leur lock, transferred to insulin syringe and 0.2 ml was injected the right flank of each mouse. The dose of the MOG in all the groups (1 to 8) was […].
# The test concentrations of laquinimod were prepared in purified water. For high dose (25.0 mg/kg) 2.5 mg/mL stock solution was prepared (group 8). The 2.5 mg/mL stock solution was diluted 1:5 and 1:10 to yield 0.5 and 0.25 mg/mL for dose levels of 5.0 mg/kg for groups 5 and 7 and 2.5 mg/kg respectively for groups #4 and 6. Laquinimod was administered daily from the initiation of the study, to the respective groups by gavage at a volume of 0.2 ml/mouse.
# (§1) Every day one tube was thawed and brought to RT.
# Clinical signs Scoring of EAE clinical signs was started from Day 10 post EAE induction and was continued daily until Day 30. The clinical signs were recorded according to a grading system described in the Table 2 above.
# (§2) All mice having scores of 1 and above were considered sick. When the first clinical sign appeared all mice were given food soaked in water, which was spread on different places on the bedding of the cages. An animal which continued to have score 5 for three days was killed on humane grounds and given score 6 on the next day. For calculation purposes, the score of animals that were sacrificed or died (6) was carried forward.
# MOG-induced EAE [2] = test: Summary of studies of GA-blocking + laquinimod in MOG-induced EAE (Examples 2.1-2.3); type: in vivo, mice
# Method: FIG. 4 is a graphical representation summarizing experimental results from Examples 2.1-2.3.
# At higher doses (5 and 25 mg/kg) laquinimod provides an additive effect over GA-blocking as summarized in Table 9 and shown on FIGS. 4A and 4B.
# MOG-induced EAE [3] = test: MOG-induced EAE with GA blocking and s.c. daily GA (Example 2.4); type: in vivo, C57B1 mice; parameters: key to MMS value / GMS value: clinical score per grading system; 1+ = sick, 5 = dead/killed
# Method: The C57B1 strain of mouse was selected, as it is an established EAE model.
# Laquinimod was administered daily orally for 30 days at dose level of 5.0 mg/kg or 25.0 mg/kg.
# Disease was induced in the mice by the injection of the encephalitogenic emulsion (MOG/CFA). Laquinimod was administered orally for 30 consecutive days from the initiation of the study.
# EAE induction EAE was induced by injecting the encephalitogenic mixture (emulsion) consisting of MOG (150.0 μg/mouse). A volume of 0.2 ml of emulsion was injected subcutaneously into the flanks of the mice. Pertussis toxin was injected intraperitoneally on the day of induction and 48 hours later (total amount was 0300 μg/mouse in 0.2 ml dosage volume).
# The emulsion (for groups 2 and 3 and groups 1 and 4 to 8) were made from equal parts of oil and liquid portions (1:1) in two syringes connected to each other with Leur lock, transferred to insulin syringe and 0.2 ml was injected to the right flank of each mouse. The dose of the MOG in all the groups (1 to 8) was 150 μg/mouse.
# The test concentrations of laquinimod were prepared in purified water. For high dose (25.0 mg/kg) 2.5 mg/mL stock solution were prepared (groups #3, 6 and 8). The stock solutions were diluted 1:5 to yield 0.5 mg/mL for dose level of 5.0 mg/kg for groups 5 and 7. Laquinimod was administered to the respective groups by gavage at a volume of 0.2 ml/mouse.
# as §1
# Clinical signs Scaring of EAE clinical signs was started from Day 10 post EAE induction and was continued daily until Day 30. The clinical signs were recorded according to a grading system described in the table 11 below
# as §2, with “mice” for “All mice”, “4” for “5”, “5” for “6”, “died” for “died (6)”
# • The number of sick animals in each group were summed. • The incidence of disease was calculated as
# • The number of dead or moribund animals in each group were summed. • The mortality of disease was calculated as
# • The mean duration of disease expressed in days was calculated as
# • The mean onset of disease expressed in days was calculated as
# • The mean maximal score (MMS) of each group was calculated as
# • The daily scores of each mouse in the test group were summed and the Individual mean daily score (IMS) was calculated as […]
# [4] = LAQ 2.5 mg/kg oral daily 30 d, alone or + GA 250 mg/kg s.c. daily 10 d
# [5] = LAQ 2.5 mg/kg oral daily 30 d, alone or + GA 250 mg/kg s.c. daily 10 d, listed as LAQ
# [6] = LAQ 5.0 mg/kg oral daily 30 d, alone or + GA 250 mg/kg s.c. daily 10 d
# [7] = LAQ 25.0 mg/kg oral daily 30 d, alone or + GA 250 mg/kg s.c. daily 10 d
# [8] = GA blocking 12.5 mg/kg once with encephalitogen
# [9] = GA blocking 12.5 mg/kg once with encephalitogen, listed as GA blocking
# [10] = GA blocking 12.5 mg/kg once with encephalitogen, alone or + LAQ 25.0 mg/kg oral daily 30 d
# [11] = GA blocking 12.5 mg/kg once with encephalitogen, alone or + LAQ 25.0 mg/kg oral daily 30 d, listed as GA blocking
molecule,measurement,setting,value
CCN(C(=O)c1c(O)c2c(Cl)cccc2n(C)c1=O)c1ccccc1 [laquinimod],% Inhibition 1 (incidence),MOG-induced EAE [1]; [4],57.1%
same,GMS value,MOG-induced EAE [1]; [4],0.5 ± 0.8
same,Incidence,MOG-induced EAE [1]; [4],6/15
same,MMS % Inhibition 2,MOG-induced EAE [1]; [4],55.9%
same,MMS value,MOG-induced EAE [1]; [4],1.5 ± 2.1
same,Mean Duration,MOG-induced EAE [1]; [4],0.8 ± 2.6 days
same,Mean Onset,MOG-induced EAE [1]; [4],30.3 ± 2.6 days
same,Mortality,MOG-induced EAE [1]; [4],One
same,GMS % Inhibition 3,MOG-induced EAE [1]; [5],76.2%
same,Mortality,MOG-induced EAE [1]; [5],1/15
same,GMS % Inhibition 3,"MOG-induced EAE [1]; LAQ 2.5 mg/kg oral daily 30 d, alone or + GA 250 mg/kg s.c. daily 10 d, listed as LQ",76.2%
same,% Inhibition 1 (incidence),MOG-induced EAE [1]; [6],64.3%
same,GMS value,MOG-induced EAE [1]; [6],0.6 ± 0.7
same,Incidence,MOG-induced EAE [1]; [6],9/15
same,MMS % Inhibition 2,MOG-induced EAE [1]; [6],38.2%
same,MMS value,MOG-induced EAE [1]; [6],2.1 ± 1.8
same,Mean Duration,MOG-induced EAE [1]; [6],5.7 ± 6.6 days
same,Mean Onset,MOG-induced EAE [1]; [6],25.1 ± 6.8 days
same,Mortality,MOG-induced EAE [1]; [6],0/15
same,% Inhibition 1 (incidence),MOG-induced EAE [1]; LAQ 25.0 mg/kg oral daily 30 d,100.0%
same,GMS % Inhibition 3,MOG-induced EAE [1]; LAQ 25.0 mg/kg oral daily 30 d,100.0%
same,GMS value,MOG-induced EAE [1]; LAQ 25.0 mg/kg oral daily 30 d,0.0 ± 0.0
same,Incidence,MOG-induced EAE [1]; LAQ 25.0 mg/kg oral daily 30 d,0/15
same,MMS % Inhibition 2,MOG-induced EAE [1]; LAQ 25.0 mg/kg oral daily 30 d,100.00%
same,MMS value,MOG-induced EAE [1]; LAQ 25.0 mg/kg oral daily 30 d,0.0 ± 0.0
same,Mean Duration,MOG-induced EAE [1]; LAQ 25.0 mg/kg oral daily 30 d,31.0 ± 0.0 days
same,Mean Onset,MOG-induced EAE [1]; LAQ 25.0 mg/kg oral daily 30 d,0.0 ± 0.0 days
same,Mortality,MOG-induced EAE [1]; LAQ 25.0 mg/kg oral daily 30 d,0/15
same,GMS % Inhibition 3,"MOG-induced EAE [1]; LAQ 25.0 mg/kg oral daily 30 d, listed as LAQ",100.00%
same,GMS % Inhibition 3,"MOG-induced EAE [1]; LAQ 25.0 mg/kg oral daily 30 d, listed as LQ",100%
same,inhibition at 2.5 mg/kg,"MOG-induced EAE [2]; Mus musculus, laquinimod 2.5 mg/kg, alone or + GA Blocking, read-out: Mean percent inhibition, Examples 2.1-2.3 summarized",53.6%
same,inhibition at 5 mg/kg,"MOG-induced EAE [2]; Mus musculus, laquinimod 5 mg/kg, alone or + GA Blocking, read-out: Mean percent inhibition, Examples 2.1-2.3 summarized",57.3%
same,inhibition at 25 mg/kg,"MOG-induced EAE [2]; Mus musculus, laquinimod 25 mg/kg, alone or + GA Blocking, read-out: Mean percent inhibition, Examples 2.1-2.3 summarized",74.9%
same,% Inhibition 1 (incidence),MOG-induced EAE [3]; [6],52.9%
same,GMS % Inhibition 3,MOG-induced EAE [3]; [6],71.4%
same,GMS value,MOG-induced EAE [3]; [6],0.6 ± 0.9
same,Incidence,MOG-induced EAE [3]; [6],8/10
same,MMS % Inhibition 2,MOG-induced EAE [3]; [6],55.9%
same,MMS value,MOG-induced EAE [3]; [6],1.5 ± 1.8
same,Mean Duration,MOG-induced EAE [3]; [6],4.2 ± 6.0 days
same,Mean Onset,MOG-induced EAE [3]; [6],26.9 ± 6.0 days
same,Mortality,MOG-induced EAE [3]; [6],0/20
same,% Inhibition 1 (incidence),MOG-induced EAE [3]; [7],88.2%
same,GMS % Inhibition 3,MOG-induced EAE [3]; [7],95.2%
same,GMS value,MOG-induced EAE [3]; [7],0.1 ± 0.4
same,Incidence,MOG-induced EAE [3]; [7],2/20
same,MMS % Inhibition 2,MOG-induced EAE [3]; [7],91.2%
same,MMS value,MOG-induced EAE [3]; [7],0.3 ± 1.0
same,Mean Duration,MOG-induced EAE [3]; [7],0.8 ± 2.6 days
same,Mean Onset,MOG-induced EAE [3]; [7],30.3 ± 2.6 days
same,Mortality,MOG-induced EAE [3]; [7],0/20
"L-glutamic acid polymer with L-alanine, L-lysine and L-tyrosine, acetate (salt) [GA]",% Inhibition 1 (incidence),MOG-induced EAE [1]; GA 250 mg/kg s.c. daily 10 d,100.0%
same,GMS % Inhibition 3,MOG-induced EAE [1]; GA 250 mg/kg s.c. daily 10 d,4.8%
same,GMS value,MOG-induced EAE [1]; GA 250 mg/kg s.c. daily 10 d,2.0 ± 1.0
same,Incidence,MOG-induced EAE [1]; GA 250 mg/kg s.c. daily 10 d,13/15
same,MMS % Inhibition 2,MOG-induced EAE [1]; GA 250 mg/kg s.c. daily 10 d,2.9%
same,MMS value,MOG-induced EAE [1]; GA 250 mg/kg s.c. daily 10 d,3.3 ± 1.4
same,Mean Duration,MOG-induced EAE [1]; GA 250 mg/kg s.c. daily 10 d,12.1 ± 5.3 days
same,Mean Onset,MOG-induced EAE [1]; GA 250 mg/kg s.c. daily 10 d,18.1 ± 5.5 days
same,% Inhibition 1 (incidence),MOG-induced EAE [1]; [8],57.1%
same,GMS value,MOG-induced EAE [1]; [8],0.7 ± 1.0
same,Incidence,MOG-induced EAE [1]; [8],6/15
same,MMS % Inhibition 2,MOG-induced EAE [1]; [8],61.8%
same,GMS % Inhibition 3,MOG-induced EAE [1]; [9],66.7%
same,MMS value,MOG-induced EAE [1]; [9],1.3 and 1.3 ± 1.8
same,Mean Duration,MOG-induced EAE [1]; [9],12.1 days and 12.1 ± 5.3 days
same,Mean Onset,MOG-induced EAE [1]; [9],26.1 ± 7.0 days
same,GMS % Inhibition 3,"MOG-induced EAE [1]; GA blocking 12.5 mg/kg once with encephalitogen, listed as GA-Block",(66.7) %
same,"Mean percent inhibition, Examples 2.1-2.3 summarized",MOG-induced EAE [2]; GA-blocking alone,67.6%
same,% Inhibition 1 (incidence),MOG-induced EAE [3]; GA 250 mg/kg s.c. daily 10 d,23.5%
same,GMS % Inhibition 3,MOG-induced EAE [3]; GA 250 mg/kg s.c. daily 10 d,38.1%
same,GMS value,MOG-induced EAE [3]; GA 250 mg/kg s.c. daily 10 d,1.3 ± 1.1
same,Incidence,MOG-induced EAE [3]; GA 250 mg/kg s.c. daily 10 d,13/20
same,MMS % Inhibition 2,MOG-induced EAE [3]; GA 250 mg/kg s.c. daily 10 d,26.5%
same,MMS value,MOG-induced EAE [3]; GA 250 mg/kg s.c. daily 10 d,2.5 ± 1.9
same,Mean Duration,MOG-induced EAE [3]; GA 250 mg/kg s.c. daily 10 d,8.3 ± 6.7 days
same,Mean Onset,MOG-induced EAE [3]; GA 250 mg/kg s.c. daily 10 d,22.5 ± 6.7 days
same,% Inhibition 1 (incidence),MOG-induced EAE [3]; [10],52.9%
same,GMS value,MOG-induced EAE [3]; [10],0.5 ± 0.9
same,Incidence,MOG-induced EAE [3]; [10],8/20
same,MMS % Inhibition 2,MOG-induced EAE [3]; [10],70.6%
same,Mean Duration,MOG-induced EAE [3]; [10],4.3 ± 6.3 days
same,Mean Onset,MOG-induced EAE [3]; [10],26.6 ± 6.4 days
same,GMS % Inhibition 3,MOG-induced EAE [3]; [11],76.2%
same,MMS value,MOG-induced EAE [3]; [11],1.0 ± 1.5
same,GMS % Inhibition 3,"MOG-induced EAE [3]; GA blocking 12.5 mg/kg once with encephalitogen, alone or + LAQ 25.0 mg/kg oral daily 30 d, listed as GA-Block",(76.2) %
